# Measured values: PubChem BioAssay AID330 (DTP/NCI, 2004)
# Toxic doses and inconclusive results are not listed.
# Test system: P388 leukemia ip, CD2F1 mice, survival T/C
# Test: NCI In Vivo Anticancer Drug Screen. Data for tumor model P388 Leukemia (intraperitoneal) in CD2F1 (CDF1) mice
# Details: endpoint: median survival time, higher = longer survival
# Outline: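 Mice carrying the transplanted tumor received test compound or vehicle. Survival was recorded in each group, and the value is the treated-group measurement divided by that of the vehicle-treated control group.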
# [1] = dose: 100.0 mg/kg/injection, schedule: Q04DX002 (ip), vehicle: saline with Tween-80
# [2] = dose: 200.0 mg/kg/injection, schedule: Q04DX002 (ip), vehicle: saline with Tween-80
# [3] = dose: 50.0 mg/kg/injection, schedule: Q01DX005 (ip), vehicle: saline with Tween-80
# [4] = dose: 100.0 mg/kg/injection, schedule: Q01DX005 (ip), vehicle: saline with Tween-80
# [5] = dose: 50.0 mg/kg/injection, schedule: Q01DX005 (ip), vehicle: Klucel (hydroxypropylcellulose) (HPC)
# [6] = dose: 100.0 mg/kg/injection, schedule: Q01DX005 (ip), vehicle: Klucel (hydroxypropylcellulose) (HPC)
compound,measurement,setting,value
c1ccc2c(NCCCCCCNc3c4ccccc4nc4ccccc34)c3ccccc3nc2c1,T/C,"dose: 0.62 mg/kg/injection, schedule: Q## X009 (ip), vehicle: lactic acid",124 % of control
same,T/C,"dose: 1.25 mg/kg/injection, schedule: Q01DX009 (ip), vehicle: Klucel (hydroxypropylcellulose) (HPC)",119 % of control
same,T/C,"dose: 1.25 mg/kg/injection, schedule: Q01DX009 (ip), vehicle: water",121 % of control
same,T/C,"dose: 1.25 mg/kg/injection, schedule: Q01DX009 (oral), vehicle: Klucel (hydroxypropylcellulose) (HPC)",99 % of control
same,T/C,"dose: 2.16 mg/kg/injection, schedule: Q01DX009 (ip), vehicle: Klucel (hydroxypropylcellulose) (HPC)",155 % of control
same,T/C,"dose: 2.16 mg/kg/injection, schedule: Q01DX009 (ip), vehicle: lactic acid",156 % of control
same,T/C,"dose: 2.5 mg/kg/injection, schedule: Q01DX009 (oral), vehicle: Klucel (hydroxypropylcellulose) (HPC)",106 % of control
same,T/C,"dose: 2.5 mg/kg/injection, schedule: Q## X009 (ip), vehicle: lactic acid",152 % of control
same,T/C,"dose: 2.59 mg/kg/injection, schedule: Q01DX009 (ip), vehicle: lactic acid",150 % of control
same,T/C,"dose: 3.6 mg/kg/injection, schedule: Q01DX009 (ip), vehicle: Klucel (hydroxypropylcellulose) (HPC)",163 % of control
same,T/C,"dose: 3.6 mg/kg/injection, schedule: Q01DX009 (ip), vehicle: lactic acid",154 % of control
same,T/C,"dose: 4.32 mg/kg/injection, schedule: Q01DX009 (ip), vehicle: lactic acid",150 % of control
same,T/C,"dose: 5.0 mg/kg/injection, schedule: Q01DX009 (oral), vehicle: Klucel (hydroxypropylcellulose) (HPC)",93 % of control
same,T/C,"dose: 5.4 mg/kg/injection, schedule: Q01DX009 (ip), vehicle: other",156 % of control
same,T/C,"dose: 6.0 mg/kg/injection, schedule: Q01DX009 (ip), vehicle: Klucel (hydroxypropylcellulose) (HPC)",180 % of control
same,T/C,"dose: 7.2 mg/kg/injection, schedule: Q01DX009 (ip), vehicle: Klucel (hydroxypropylcellulose) (HPC)",157 % of control
same,T/C,"dose: 7.2 mg/kg/injection, schedule: Q01DX009 (ip), vehicle: lactic acid",150 % of control
same,T/C,"dose: 7.2 mg/kg/injection, schedule: Q04DX003 (ip), vehicle: other",118 % of control
same,T/C,"dose: 7.78 mg/kg/injection, schedule: Q01DX003 (ip), vehicle: water",101 % of control
same,T/C,"dose: 7.78 mg/kg/injection, schedule: Q01DX009 (oral), vehicle: Klucel (hydroxypropylcellulose) (HPC)",101 % of control
same,T/C,"dose: 7.78 mg/kg/injection, schedule: Q01DX009 (oral), vehicle: lactic acid",111 % of control
same,T/C,"dose: 9.0 mg/kg/injection, schedule: Q01DX009 (ip), vehicle: other",165 % of control
same,T/C,"dose: 10.0 mg/kg/injection, schedule: Q01DX009 (ip), vehicle: Klucel (hydroxypropylcellulose) (HPC)",173 % of control
same,T/C,"dose: 10.0 mg/kg/injection, schedule: Q01DX009 (ip), vehicle: other",150 % of control
same,T/C,"dose: 10.0 mg/kg/injection, schedule: Q01DX009 (ip), vehicle: water",150 % of control
same,T/C,"dose: 10.0 mg/kg/injection, schedule: Q01DX009 (oral), vehicle: Klucel (hydroxypropylcellulose) (HPC)",97 % of control
same,T/C,"dose: 12.0 mg/kg/injection, schedule: Q01DX009 (ip), vehicle: Klucel (hydroxypropylcellulose) (HPC)",154 % of control
same,T/C,"dose: 12.0 mg/kg/injection, schedule: Q04DX003 (ip), vehicle: other",95 % of control
same,T/C,"dose: 13.0 mg/kg/injection, schedule: Q01DX003 (ip), vehicle: water",101 % of control
same,T/C,"dose: 13.0 mg/kg/injection, schedule: Q01DX009 (oral), vehicle: Klucel (hydroxypropylcellulose) (HPC)",100 % of control
same,T/C,"dose: 13.0 mg/kg/injection, schedule: Q01DX009 (oral), vehicle: lactic acid",104 % of control
same,T/C,"dose: 15.0 mg/kg/injection, schedule: Q01DX009 (ip), vehicle: other",168 % of control
same,T/C,"dose: 20.0 mg/kg/injection, schedule: Q01DX009 (oral), vehicle: Klucel (hydroxypropylcellulose) (HPC)",108 % of control
same,T/C,"dose: 21.6 mg/kg/injection, schedule: Q01DX009 (oral), vehicle: Klucel (hydroxypropylcellulose) (HPC)",100 % of control
same,T/C,"dose: 21.6 mg/kg/injection, schedule: Q01DX009 (oral), vehicle: lactic acid",96 % of control
same,T/C,"dose: 36.0 mg/kg/injection, schedule: Q01DX009 (oral), vehicle: Klucel (hydroxypropylcellulose) (HPC)",104 % of control
same,T/C,"dose: 36.0 mg/kg/injection, schedule: Q01DX009 (oral), vehicle: lactic acid",96 % of control
same,T/C,"dose: 40.0 mg/kg/injection, schedule: Q01DX009 (oral), vehicle: Klucel (hydroxypropylcellulose) (HPC)",93 % of control
same,T/C,"dose: 60.0 mg/kg/injection, schedule: Q01DX009 (oral), vehicle: Klucel (hydroxypropylcellulose) (HPC)",96 % of control
same,T/C,"dose: 60.0 mg/kg/injection, schedule: Q01DX009 (oral), vehicle: lactic acid",93 % of control
same,T/C,"dose: 80.0 mg/kg/injection, schedule: Q01DX009 (oral), vehicle: Klucel (hydroxypropylcellulose) (HPC)",97 % of control
same,T/C,"dose: 100.0 mg/kg/injection, schedule: Q01DX009 (oral), vehicle: Klucel (hydroxypropylcellulose) (HPC)",95 % of control
same,T/C,"dose: 100.0 mg/kg/injection, schedule: Q01DX009 (oral), vehicle: lactic acid",99 % of control
same,T/C,"dose: 167.0 mg/kg/injection, schedule: Q01DX009 (oral), vehicle: Klucel (hydroxypropylcellulose) (HPC)",108 % of control
same,T/C,"dose: 167.0 mg/kg/injection, schedule: Q01DX009 (oral), vehicle: lactic acid",103 % of control
COC(=O)c1nnc2n1-c1ccc(Cl)cc1C(c1ccccc1)=[N+]([O-])C2,T/C,"dose: 50.0 mg/kg/injection, schedule: Q04DX002 (ip), vehicle: saline with Tween-80",96 % of control
same,T/C,[1],104 % of control
same,T/C,[2],99 % of control
CCOC(=O)c1c[nH]c2c(=O)c3cc(C)ccc3sc2c1=O,T/C,"dose: 50.0 mg/kg/injection, schedule: Q01DX001 (ip), vehicle: saline with Tween-80",95 % of control
same,T/C,"dose: 100.0 mg/kg/injection, schedule: Q01DX001 (ip), vehicle: saline with Tween-80",93 % of control
same,T/C,"dose: 200.0 mg/kg/injection, schedule: Q01DX001 (ip), vehicle: saline with Tween-80",87 % of control
CCCC(N)P(=O)(O)O (stereo not drawn),T/C,"dose: 50.0 mg/kg/injection, schedule: Q01DX009 (ip), vehicle: saline",99 % of control
same,T/C,"dose: 100.0 mg/kg/injection, schedule: Q01DX009 (ip), vehicle: saline",93 % of control
same,T/C,"dose: 200.0 mg/kg/injection, schedule: Q01DX009 (ip), vehicle: saline",96 % of control
same,T/C,"dose: 400.0 mg/kg/injection, schedule: Q01DX009 (ip), vehicle: saline",93 % of control
C/C(=N\NC(=S)N1CCC(c2ccccc2)CC1)c1nccnc1C,T/C,[3],100 % of control
same,T/C,[4],102 % of control
same,T/C,"dose: 200.0 mg/kg/injection, schedule: Q01DX005 (ip), vehicle: saline with Tween-80",100 % of control
COC1=C(C)C2CC(OC)OC3CC4CCCCC4(C)C(C1=O)C32C (stereo not drawn),T/C,"dose: 25.0 mg/kg/injection, schedule: Q01DX005 (ip), vehicle: Klucel (hydroxypropylcellulose) (HPC)",105 % of control
same,T/C,[5],99 % of control
same,T/C,[6],92 % of control
COC(=O)C1C(=O)OC(C(C)(C)Cl)C1C(=O)OC (stereo not drawn),T/C,[1],99 % of control
same,T/C,[2],98 % of control
same,T/C,"dose: 400.0 mg/kg/injection, schedule: Q04DX002 (ip), vehicle: saline with Tween-80",101 % of control
Cc1cc2c(C(C)C)c(O)c(O)c(C=NCCO)c2c(O)c1-c1c(C)cc2c(C(C)C)c(O)c(O)c(C=NCCO)c2c1O,T/C,[3],113 % of control
same,T/C,"dose: 75.0 mg/kg/injection, schedule: Q01DX005 (ip), vehicle: saline with Tween-80",120 % of control
same,T/C,[4],120 % of control
COc1ccc2ccc(C=O)cc2c1OC,T/C,"dose: 25.0 mg/kg/injection, schedule: Q01DX009 (ip), vehicle: other",104 % of control
same,T/C,"dose: 50.0 mg/kg/injection, schedule: Q01DX009 (ip), vehicle: other",95 % of control
same,T/C,"dose: 100.0 mg/kg/injection, schedule: Q01DX009 (ip), vehicle: other",103 % of control
same,T/C,"dose: 200.0 mg/kg/injection, schedule: Q01DX009 (ip), vehicle: other",97 % of control
same,T/C,"dose: 400.0 mg/kg/injection, schedule: Q01DX009 (ip), vehicle: other",112 % of control
COC(=O)CCSC(=O)NC(C)C,T/C,[5],99 % of control
same,T/C,[6],102 % of control
same,T/C,"dose: 200.0 mg/kg/injection, schedule: Q01DX005 (ip), vehicle: Klucel (hydroxypropylcellulose) (HPC)",100 % of control
C[N+]12CCCCC1CC2 (stereo not drawn),T/C,"dose: 6.25 mg/kg/injection, schedule: Q01DX009 (ip), vehicle: saline",89 % of control
same,T/C,"dose: 12.5 mg/kg/injection, schedule: Q01DX009 (ip), vehicle: saline",88 % of control
same,T/C,"dose: 25.0 mg/kg/injection, schedule: Q01DX009 (ip), vehicle: saline",91 % of control
